Tested on: Nannochloropsis gaditana
Experiment: Nile Red staining of oil accumulation in Nannochloropsis gaditana incubated with inhibitors of sterol metabolism
Assay type: cell-based
Details: ESAW 1N1P and ESAW 10N10P media; time course at least 7 days; FIGS. 5 and 6
Description: Experiments were performed in two different conditions of Nannochloropsis gaditana: cells were either cultured in ESAW containing 47 mg·L^−1 NaNO3 and 3 mg·L^−1 NaH2PO4 (medium 1N1P), or 470 mg/L NaNO3 and 30 mg·L^−1NaH2PO4) (medium 10N10P). Cells in an exponential growth phase were collected via centrifugation at 3500 rpm for 10 minutes. The supernatant was discarded and the cells were resuspended in the same volume of ESAW medium (either 1N1P or 10N10P). The cultures were centrifuged again at 3500 rpm, for 10 minutes, and the supernatant was discarded. The pellet was resuspended in ESAW (either 1N1P or 10N10P) to obtain a concentration of 2×10^6 cells/mL. […]
Each day, an aliquot was taken from each flask in order to perform a Nile Red stain and cell counts. […] In order to detect any background noise, fluorescence was measured at excitation and emission of 530 nm and 580 nm, respectively. […] After 20 minutes of incubation, Nile Red fluorescence was measured at excitation and emission of 530 nm and 580 nm, respectively.
Nile Red Fluorescence was normalized by calculating the relative fluorescence units per million cells. Results were expressed as a percentage of Nile Red fluorescence of Nannochloropsis gaditana cultured in complete medium (either ESAW (10N10P) or ESAW (1N1P)).

| SMILES | accumulation of oil (Nile Red fluorescence per million cells) |
| --- | --- |
| CN(Cc1ccc(C(C)(C)C)cc1)Cc1cccc2ccccc12 [Butenafine] | trigger the accumulation of oil |
| C#C[C@]1(O)CC[C@H]2[C@@H]3CCc4cc(O)ccc4[C@H]3CC[C@@]21C [Ethinylestradiol] | trigger the accumulation of oil |
